Experiments:
[1] = test system: SASP factors; assay: SASP factor expression (qRT-PCR) and secretion (antibody array) in UPK10 cells; format: cell-based, mouse
Description: UPK10 and ID8 cells were treated with […], or a combination for three days. The drugs were then released from drug treatment and cultured for three days or extended period as indicated. The senescent cells were labelled with SPiDER-0 Gal Cellular Senescence Detection Kit (Dojindo, Cat. No: SG02-10) following the manufacture's instruction. Both senescent and non-senescent cells were sorted using flow cytometry. Mouse Cytokine Array C1 kit (RayBiotech. Cat. No: AAM-CYT-1-2) was used for cytokine analysis following the manufacturer's guidelines. Briefly, cells were washed once and cultured in serum-free medium for 48 hrs. Conditioned medium was filtered (0.2 μm) and then subjected to cytokine-array analysis. After collection of conditional media, the cell number of each sample was counted. The intensities of array dots were visualized on film after incubation with SuperSignal West Pico PLUS Chemiluminescent Substrate (Thermo Fisher Scientific. Cat. No: 34580). The integrated density was measured using Image J and normalized to the cell number from which the conditioned medium was generated. Total RNA was isolated using Trizol (Invitrogen) according to the manufacturer's instruction. Extracted RNAs were used for reverse-transcriptase PCR (RT-PCR) with High-Capacity cDNA Reverse Transcription Kit (Thermo fisher, Cat. No: 4368814). Quantitative PCR (qPCR) was performed using iTaq™ Universal SYBR® Green Supermix (BIO-RAD, Cat. No: 1725121) and QuantStudio 3 Real-Time PCR System.

[2] = test system: UPK10 cells; assay: Senescence induction in UPK10 cells (SA-β-Gal, SPiDER SA-β-Gal, immunoblot); format: cell-based, mouse
Description: (§1) SA-β-Gal staining was performed as previously described (Nacarelli et al., 2019). Briefly, cells were fixed for 5 mins at room temperature in 2% formaldehyde/0.2 glutaraldehyde in PBS. After washing twice with PBS, cells were stained at 37° C. overnight in a non-CO2 incubator in staining solution (40 mM Na2HPO4, pH 6.0, 150 mM NaCl, 2 mM MgCl2, 5 mM K3Fe(CN)6, 5 mM K4Fe(CN)6, and 1 mg/ml X-gal. After counterstaining with Nuclear Fast Red solution (Ricca, Cat. No: R5463200500), slides were subjected to an alcohol dehydration series and mounted with Permount (FisherScientific. Cat. No: SP15-100). Slides were examined using a Zeiss AxioImager A2.
(§2) UPK10 and ID8 cells were treated with […], or a combination for three days. The drugs were then released from drug treatment and cultured for three days or extended period as indicated. The senescent cells were labelled with SPiDER-0 Gal Cellular Senescence Detection Kit (Dojindo, Cat. No: SG02-10) following the manufacture's instruction. Both senescent and non-senescent cells were sorted using flow cytometry.
(§3) Cells were lysed in 1× sample buffer (2% SDS, 10% glycerol, 0.01% bromophenol blue, 62.5 mM Tris, pH 6.8, and 0.1 M DTT) and heated to 95° C. for 10 min. Protein concentrations were determined using the protein assay dye (Bio-Rad. Cat. No: #5000006) and Nanodrop. An equal amount of total protein was resolved using SDS-PAGE gels and transferred to PVDF membranes at 110 V for 2 hours at 4° C. Membranes were blocked with 5% nonfat milk in TBS containing 0.1% Tween 20 (TBS-T) for 1 hour at room temperature. Membranes were incubated overnight at 4° C. in the primary antibodies in 4% BSA/TBS+0.025% sodium azide. Membranes were washed four times in TBS-T for 5 min at room temperature, after which they were incubated with HRP-conjugated secondary antibodies (Cell Signaling Technology. Cat. No: 7076S, 7074S) for 1 hour at room temperature. After washing four times in TBS-T for 5 min at room temperature, proteins were visualized on film after incubation with SuperSignal West Pico PLUS Chemiluminescent Substrate (Thermo Fisher Scientific. Cat. No: 34580).

[3] = test system: ID8-Defb29/Vegf-a cells; assay: Cisplatin-induced senescence, SA-β-gal staining of ID8-Defb29/Vegf-a cells; format: cell-based, mouse; conditions: 2 μM Cisplatin for 48 hours
Description: For oncogene-induced senescence, IMR90 cells were infected with retrovirus produced by pBABE-puro-H-RAS^G12V (Addgene) at 37° C. for 24 hr. A second round of infection was performed on the same target cells. Infected cells were drug-selected using 3 μg/ml puromycin (Nacarelli et al., 2019). For Etoposide-induced senescence, IMR90 or OVCAR3 cells at approximately 60-70% confluency were treated with 50 μM or 2 μM Etoposide for 48 hours. The treated cells were cultured in fresh medium and harvested at day 8. For Cisplatin-induced senescence, OVCAR3 or ID8-Defb29/Vegf-a cells at approximately 60-70% confluency were treated with 2 μM Cisplatin for 48 hours. The treated cells were cultured in fresh medium and harvested at day 8.
as §1

[4] = target: T1, TOP1cc (Mus musculus, UniProt Q04750); assay: Immunoblot of TOP1cc and SASP regulators in sorted UPK10 cells; format: cell-based
T1 construct: endogenous in cells; host or cells: UPK10 mouse ovarian cancer cells, sorted senescent and non-senescent fractions
T1 sequence (Q04750 1-767): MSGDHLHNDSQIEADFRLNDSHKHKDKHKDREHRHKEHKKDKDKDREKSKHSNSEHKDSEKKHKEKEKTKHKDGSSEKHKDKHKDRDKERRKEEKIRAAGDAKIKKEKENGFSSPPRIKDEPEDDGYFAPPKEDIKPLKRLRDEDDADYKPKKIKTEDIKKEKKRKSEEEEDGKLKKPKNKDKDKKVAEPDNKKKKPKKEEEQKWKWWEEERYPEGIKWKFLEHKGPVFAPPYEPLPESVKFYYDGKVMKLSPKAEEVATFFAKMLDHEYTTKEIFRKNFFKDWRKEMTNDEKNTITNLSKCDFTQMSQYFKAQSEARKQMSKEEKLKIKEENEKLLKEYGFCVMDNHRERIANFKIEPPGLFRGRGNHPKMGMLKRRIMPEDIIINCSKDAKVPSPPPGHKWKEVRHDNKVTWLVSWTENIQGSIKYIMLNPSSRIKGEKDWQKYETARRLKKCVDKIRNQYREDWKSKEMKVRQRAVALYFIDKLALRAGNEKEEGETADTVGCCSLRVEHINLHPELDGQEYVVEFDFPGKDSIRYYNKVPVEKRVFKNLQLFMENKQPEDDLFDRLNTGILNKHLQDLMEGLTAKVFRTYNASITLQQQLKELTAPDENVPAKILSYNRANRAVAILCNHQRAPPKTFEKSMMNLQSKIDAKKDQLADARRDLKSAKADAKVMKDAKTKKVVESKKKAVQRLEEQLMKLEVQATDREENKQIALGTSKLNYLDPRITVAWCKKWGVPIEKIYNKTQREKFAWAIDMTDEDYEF
Description: as §2, §3
• anti-Topoisomerase I-DNA Covalent Complexes (TOP1cc) (clone 1.1A) (Millipore. Cat. No: MABE1084), 1:1000 for slot blot • anti-TOP1 (Proteintech. Cat. No: 20705-1-AP), 1:1000 for immunoblotting • anti-cGAS (D9) (Santa Cruz. Cat. No: sc-515777), 1:1000 for immunoblotting; • anti-Cyclin A (H432) (Santa Cruz. Cat. No: sc-751), 1:1000 for immunoblotting; • anti-βactin (Sigma. Cat. No: A2228), 1:10000 for immunoblotting.

[5] = test system: SASP factors; assay: SASP factor expression by qRT-PCR in ID8 cells; format: cell-based, mouse
Description: UPK10 and ID8 cells were treated with […], or a combination for three days. The drugs were then released from drug treatment and cultured for three days or extended period as indicated. The senescent cells were labelled with SPiDER-0 Gal Cellular Senescence Detection Kit (Dojindo, Cat. No: SG02-10) following the manufacture's instruction. Both senescent and non-senescent cells were sorted using flow cytometry. Total RNA was isolated using Trizol (Invitrogen) according to the manufacturer's instruction. Extracted RNAs were used for reverse-transcriptase PCR (RT-PCR) with High-Capacity cDNA Reverse Transcription Kit (Thermo fisher, Cat. No: 4368814). Quantitative PCR (qPCR) was performed using iTaq™ Universal SYBR® Green Supermix (BIO-RAD, Cat. No: 1725121) and QuantStudio 3 Real-Time PCR System.

[6] = cisplatin three days, three days of release

Question: Which “SASP factor levels compared with senescent cells sorted from cisplatin and irinotecan combination treatment” value ([1]; UPK10 cells) does the source give for `Cc1ccc2c(=O)c3cccc(CC(=O)O)c3oc2c1C` [DMXAA] here?
Answer: Its value is “significantly lower levels”.

Question: And the “expression and secretion of SASP factors” value ([1]; UPK10 cells, DMXAA as control)?
Answer: Its value is “sufficient to increase the expression and secretion of SASP factors”.

Question: For `N.N.[Cl][Pt][Cl]` [cisplatin, Cisplatin], which “cell proliferation marker cyclin A” value [2, 6] is on record?
Answer: Its value is “decrease in cell proliferation marker cyclin A”.

Question: And the “markers of senescence (SA-β-Gal activity, p16, γH2AX)” value [2, 6]?
Answer: Its value is “induction of markers of senescence including senescence-associated β-galactosidase (SA-β-Gal) activity, p16 and γH2AX”.

Question: What about the “treated cells in which senescence was induced” value [3] of the same compound?
Answer: The value was about 100%.

Question: And the “concentration chosen on optimal induction of SASP factors IL1β, IL8, CXCL10 in a dose-titration study” value ([1]; UPK10 cells)?
Answer: Its value is 10 µM.

Question: Which “percentage of senescent cells induced by cisplatin with or without irinotecan (SPiDER SA-β-Gal)” value [2] does the source give for `CCc1c2c(nc3ccc(OC(=O)N4CCC(N5CCCCC5)CC4)cc13)-c1cc3c(c(=O)n1C2)COC(=O)[C@]3(O)CC` [irinotecan] here?
Answer: Its value is “comparable”.

Question: And the “SA-β-Gal activity (SPiDER)” value ([2]; irinotecan alone)?
Answer: Its value is “also induced SA-β-Gal activity”.

Question: What about the “TOP1cc levels in sorted senescent cells” value ([4]; compared with cisplatin-induced senescent cells, UPK10) of the same compound?
Answer: The value was “increased by irinotecan addition”.

Question: What about the “TOP1cc levels in sorted non-senescent cells” value ([4]; compared with vehicle control treated non-senescent cells, UPK10) of the same compound?
Answer: The value was “notably higher”.

Question: What about the “SASP regulators phospho-p65 NF-κB and phosphor-p38 MAPK” value ([4]; sorted senescent UPK10 cells) of the same compound?
Answer: The value was “increase in SASP regulators such as phospho-p65 NF-κB and phosphor-p38 MAPK”.

Question: And the “SASP expression in cisplatin-induced senescent ID8 cells” value [5]?
Answer: Its value is “boosts SASP expression”.

Question: What about the “expression of SASP factors at the mRNA levels (qRT-PCR)” value ([1]; sorted senescent UPK10 cells induced by cisplatin) of the same compound?
Answer: Its value is “significantly increased the expression of SASP factors”.

— patent US20230082929A1, “METHODS OF GENERATING AND USING SENESCENT-INDUCED CELLS FOR TREATMENT OF CANCER AND COMPOSITIONS RELATING THERETO” (The Wistar Institute of Anatomy and Biology, priority 2020, published 2023)
